Data as given in ChEMBL document CHEMBL1287687, “5-benzyloxytryptamine as an antagonist of TRPM8” (Bioorg Med Chem Lett, 2010).
The source made the active and inactive calls. The calls are words filed in the database; no cut-off is given here.

How the values were obtained:
[1] = molecular target: T1, Transient receptor potential cation channel subfamily M member 8 (Homo sapiens, UniProt Q7Z2W7); assay: Antagonist activity at human TRPM8 receptor expressed in human T-REx-293 cells assessed as inhibition of menthol-induced 45calcium influx treated 5 mins before menthol challenge measured after 5 mins; format: functional, cell-based, HEK293
Target sequence in this assay (Q7Z2W7 whole entry): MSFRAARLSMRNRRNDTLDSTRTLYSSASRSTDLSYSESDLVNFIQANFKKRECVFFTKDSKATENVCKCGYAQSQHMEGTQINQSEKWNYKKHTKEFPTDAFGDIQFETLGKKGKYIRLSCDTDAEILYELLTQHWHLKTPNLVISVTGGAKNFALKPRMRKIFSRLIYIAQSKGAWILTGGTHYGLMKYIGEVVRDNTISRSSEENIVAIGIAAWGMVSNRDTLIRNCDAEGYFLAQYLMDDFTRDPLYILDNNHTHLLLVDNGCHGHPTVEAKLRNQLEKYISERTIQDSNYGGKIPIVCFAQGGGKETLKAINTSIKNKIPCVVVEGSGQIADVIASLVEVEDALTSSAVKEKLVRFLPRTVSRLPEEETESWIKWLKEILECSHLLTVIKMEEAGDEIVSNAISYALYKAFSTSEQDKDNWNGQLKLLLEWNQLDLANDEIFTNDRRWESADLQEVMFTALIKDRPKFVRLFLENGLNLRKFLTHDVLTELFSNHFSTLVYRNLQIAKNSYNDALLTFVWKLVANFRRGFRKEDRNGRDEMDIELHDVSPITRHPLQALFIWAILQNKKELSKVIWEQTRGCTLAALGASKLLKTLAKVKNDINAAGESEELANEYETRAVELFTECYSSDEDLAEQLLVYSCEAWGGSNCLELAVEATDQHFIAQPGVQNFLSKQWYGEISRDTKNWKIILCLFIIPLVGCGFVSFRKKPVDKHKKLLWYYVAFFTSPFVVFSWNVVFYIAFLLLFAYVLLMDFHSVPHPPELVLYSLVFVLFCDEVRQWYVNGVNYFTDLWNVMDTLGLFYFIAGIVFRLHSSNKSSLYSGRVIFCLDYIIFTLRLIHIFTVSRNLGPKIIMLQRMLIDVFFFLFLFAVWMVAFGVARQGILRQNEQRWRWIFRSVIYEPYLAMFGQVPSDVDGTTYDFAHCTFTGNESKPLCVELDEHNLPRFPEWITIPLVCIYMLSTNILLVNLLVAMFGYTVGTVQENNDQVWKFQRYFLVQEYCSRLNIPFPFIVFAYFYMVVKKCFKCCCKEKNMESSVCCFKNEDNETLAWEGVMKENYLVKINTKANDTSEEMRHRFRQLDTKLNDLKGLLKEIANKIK

[2] = molecular target: T1, Transient receptor potential cation channel subfamily M member 8; assay: Antagonist activity at human TRPM8 receptor expressed in HEK cells assessed as inhibition of WS-12-stimulated current at 100 uM pretreated for 2 mins by patch clamp assay; format: functional, cell-based; conditions: HEK293
Target sequence in this assay (Q7Z2W7 whole entry, looked up): as the sequence (Q7Z2W7 whole entry) above

[3] = molecular target: T1, Transient receptor potential cation channel subfamily M member 8; assay: Antagonist activity at human TRPM8 receptor expressed in human T-REx-293 cells assessed as inhibition of icilin-induced 45calcium influx treated 5 mins before icilin challenge measured after 5 mins; format: functional, cell-based, HEK293
Target sequence in this assay (Q7Z2W7 whole entry): as above

[4] = molecular target: T1, Transient receptor potential cation channel subfamily M member 8; conditions: HEK293, 1 uM
Target sequence in this assay (Q7Z2W7 whole entry, looked up): as the sequence (Q7Z2W7 whole entry) above
Description: Antagonist activity at human TRPM8 receptor expressed in HEK cells assessed as inhibition of WS-12-stimulated current at 1 uM pretreated for 2 mins by patch clamp assay

[5] = molecular target: Transient receptor potential cation channel subfamily V member 1 (Homo sapiens) (UniProt Q8NER1); assay: Inhibition of TRPV1 receptor up to 10 uM
Sequence of Transient receptor potential cation channel subfamily V member 1 (Homo sapiens) (Q8NER1 whole entry): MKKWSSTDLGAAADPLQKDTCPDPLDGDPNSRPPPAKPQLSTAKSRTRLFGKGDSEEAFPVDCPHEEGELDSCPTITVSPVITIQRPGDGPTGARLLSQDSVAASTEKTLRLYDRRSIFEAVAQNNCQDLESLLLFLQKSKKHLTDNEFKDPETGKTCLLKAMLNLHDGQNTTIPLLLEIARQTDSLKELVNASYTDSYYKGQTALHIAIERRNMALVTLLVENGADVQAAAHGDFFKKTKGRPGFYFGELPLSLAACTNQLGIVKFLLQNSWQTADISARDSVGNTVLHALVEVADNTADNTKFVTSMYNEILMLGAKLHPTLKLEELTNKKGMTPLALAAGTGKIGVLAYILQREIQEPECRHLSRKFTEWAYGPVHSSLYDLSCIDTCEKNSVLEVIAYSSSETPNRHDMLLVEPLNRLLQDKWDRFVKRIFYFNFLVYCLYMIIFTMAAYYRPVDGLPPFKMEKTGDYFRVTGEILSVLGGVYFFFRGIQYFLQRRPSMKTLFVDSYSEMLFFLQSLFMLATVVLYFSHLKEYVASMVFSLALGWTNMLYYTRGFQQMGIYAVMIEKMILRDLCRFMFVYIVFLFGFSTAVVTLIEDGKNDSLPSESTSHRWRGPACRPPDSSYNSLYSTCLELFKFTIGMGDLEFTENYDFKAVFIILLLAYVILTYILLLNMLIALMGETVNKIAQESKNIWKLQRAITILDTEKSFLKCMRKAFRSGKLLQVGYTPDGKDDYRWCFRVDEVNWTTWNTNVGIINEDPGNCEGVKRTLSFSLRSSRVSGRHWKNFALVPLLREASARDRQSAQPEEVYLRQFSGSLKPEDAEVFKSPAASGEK

[6] = molecular target: Transient receptor potential cation channel subfamily V member 4 (Homo sapiens) (UniProt Q9HBA0); assay: Inhibition of TRPV4 receptor up to 10 uM
Sequence of Transient receptor potential cation channel subfamily V member 4 (Homo sapiens) (Q9HBA0 whole entry): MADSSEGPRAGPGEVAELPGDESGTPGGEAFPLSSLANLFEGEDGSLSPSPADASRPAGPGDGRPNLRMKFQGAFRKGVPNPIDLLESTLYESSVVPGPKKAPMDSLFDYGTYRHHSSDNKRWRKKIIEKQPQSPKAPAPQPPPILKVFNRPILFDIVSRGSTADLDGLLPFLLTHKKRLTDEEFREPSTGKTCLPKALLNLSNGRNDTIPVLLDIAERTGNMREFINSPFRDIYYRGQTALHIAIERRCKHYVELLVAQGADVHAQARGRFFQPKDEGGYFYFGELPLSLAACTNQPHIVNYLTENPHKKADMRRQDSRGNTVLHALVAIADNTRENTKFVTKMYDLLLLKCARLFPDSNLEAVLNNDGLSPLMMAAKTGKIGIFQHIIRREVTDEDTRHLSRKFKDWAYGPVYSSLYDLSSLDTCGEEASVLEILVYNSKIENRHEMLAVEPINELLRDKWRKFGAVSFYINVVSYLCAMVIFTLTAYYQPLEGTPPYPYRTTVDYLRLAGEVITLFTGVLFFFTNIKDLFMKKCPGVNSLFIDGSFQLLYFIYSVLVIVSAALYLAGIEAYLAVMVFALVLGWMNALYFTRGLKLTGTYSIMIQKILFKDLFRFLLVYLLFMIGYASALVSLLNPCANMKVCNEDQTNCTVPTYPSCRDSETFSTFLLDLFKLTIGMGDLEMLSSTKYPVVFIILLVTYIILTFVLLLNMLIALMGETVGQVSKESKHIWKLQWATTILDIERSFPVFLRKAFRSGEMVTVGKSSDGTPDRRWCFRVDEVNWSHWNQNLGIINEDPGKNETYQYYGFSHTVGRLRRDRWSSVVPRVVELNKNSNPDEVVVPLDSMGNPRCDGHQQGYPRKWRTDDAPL

[7] = molecular target: Transient receptor potential cation channel subfamily A member 1 (Homo sapiens) (UniProt O75762); assay: Inhibition of TRPA1 receptor up to 10 uM
Sequence of Transient receptor potential cation channel subfamily A member 1 (Homo sapiens) (O75762 whole entry): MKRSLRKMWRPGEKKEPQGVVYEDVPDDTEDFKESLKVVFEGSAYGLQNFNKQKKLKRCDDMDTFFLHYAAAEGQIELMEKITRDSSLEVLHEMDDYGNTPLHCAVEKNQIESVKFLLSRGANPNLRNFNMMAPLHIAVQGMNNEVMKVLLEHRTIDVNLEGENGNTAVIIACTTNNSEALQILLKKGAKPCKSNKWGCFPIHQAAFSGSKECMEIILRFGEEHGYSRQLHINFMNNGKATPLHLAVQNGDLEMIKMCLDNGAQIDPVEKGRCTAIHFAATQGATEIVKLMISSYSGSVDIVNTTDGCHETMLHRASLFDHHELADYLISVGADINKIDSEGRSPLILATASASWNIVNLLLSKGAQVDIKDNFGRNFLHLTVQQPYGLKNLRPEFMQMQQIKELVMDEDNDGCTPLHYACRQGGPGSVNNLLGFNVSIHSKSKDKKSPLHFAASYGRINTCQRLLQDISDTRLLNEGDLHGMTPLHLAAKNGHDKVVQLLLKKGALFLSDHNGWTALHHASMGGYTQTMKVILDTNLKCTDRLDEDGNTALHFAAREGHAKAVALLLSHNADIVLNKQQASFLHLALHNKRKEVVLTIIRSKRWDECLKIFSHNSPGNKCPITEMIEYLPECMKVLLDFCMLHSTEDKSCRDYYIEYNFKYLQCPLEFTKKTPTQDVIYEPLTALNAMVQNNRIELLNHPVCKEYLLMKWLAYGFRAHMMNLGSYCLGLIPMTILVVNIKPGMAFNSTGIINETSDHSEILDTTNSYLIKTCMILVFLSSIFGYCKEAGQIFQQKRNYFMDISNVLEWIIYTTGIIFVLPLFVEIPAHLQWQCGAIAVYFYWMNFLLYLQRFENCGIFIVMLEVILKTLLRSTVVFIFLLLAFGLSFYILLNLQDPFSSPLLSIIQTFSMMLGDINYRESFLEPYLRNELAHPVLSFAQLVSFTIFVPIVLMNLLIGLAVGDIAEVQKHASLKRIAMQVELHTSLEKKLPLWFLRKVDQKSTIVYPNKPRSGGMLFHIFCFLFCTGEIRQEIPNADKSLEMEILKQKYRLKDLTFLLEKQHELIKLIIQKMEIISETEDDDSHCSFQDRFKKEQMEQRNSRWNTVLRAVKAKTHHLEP

SMILES: N#CCc1c[nH]c2ccc(OCc3ccccc3)cc12
- IC50 ([1]; hek293): Not Active

SMILES: NCCc1c[nH]c2ccc(O)cc12
- inhibition [2]: inactive

SMILES: NCCc1c[nH]c2ccc(Cl)cc12
- IC50 [3]: 32.2 µM
- IC50 ([1]; read-out: IC50): 21.5 µM

SMILES: NCCc1c[nH]c2ccc(OCc3ccccc3)cc12 [5-BENZYLOXYTRYPTAMINE]
- inhibition [4]: Active
- inhibition [5]: inactive
- inhibition [6]: inactive
- IC50 [3]: 0.66 µM
- inhibition [7]: inactive
- IC50 ([1]; read-out: IC50): 0.34 µM

SMILES: CN(C)CCc1c[nH]c2ccc(OCc3ccccc3)cc12
- IC50 [3]: 5.96 µM
- IC50 ([1]; read-out: IC50): 5.63 µM

SMILES: Cc1[nH]c2ccc(OCc3ccccc3)cc2c1CCN
- IC50 [3]: 2.36 µM
- IC50 ([1]; read-out: IC50): 1.5 µM

SMILES: NCCc1c[nH]c2ccc(Br)cc12
- IC50 [3]: 30.4 µM
- IC50 ([1]; read-out: IC50): 22.7 µM

SMILES: CCOC(=O)NCCc1c[nH]c2ccc(OCc3ccccc3)cc12
- IC50 [3]: 28.8 µM
- IC50 ([1]; read-out: IC50): 21.6 µM

SMILES: c1ccc(COc2ccc3[nH]ccc3c2)cc1
- IC50 ([1]; hek293): Not Active

SMILES: NCCc1c[nH]c2ccc(F)cc12
- IC50 [3]: 13.1 µM
- IC50 ([1]; read-out: IC50): 12.3 µM

SMILES: NCCc1c[nH]c2c(OCc3ccccc3)cccc12
- IC50 [3]: 8.93 µM
- IC50 ([1]; read-out: IC50): 3.34 µM

SMILES: COc1ccc2[nH]cc(CCN)c2c1 [5-METHOXYTRYPTAMINE]
- IC50 [3]: 11.6 µM
- IC50 ([1]; read-out: IC50): 12.4 µM
